The test system of test [1] is Staphylococcus aureus. Put plainly: Antibiofilm activity against methicillin-resistant Staphylococcus aureus assessed as inhibition of biofilm formation by measuring residual biofilm growth incubated for overnight at 10-fold dilution by crystal violet staining based microtiter plate assay relative to control. It counts as functional.
Test [2] has as its system Staphylococcus aureus. Put plainly: Antibacterial activity against methicillin-resistant Staphylococcus aureus assessed as alteration in bacterial growth incubated for overnight by microtiter plate based spectrophotometric analysis. In kind it is functional, organism-based.
For test [3], the system named is Staphylococcus aureus. Put plainly: Antibiofilm activity against methicillin-resistant Staphylococcus aureus assessed as inhibition of biofilm formation incubated for overnight by crystal violet staining based microtiter plate assay. It counts as functional, organism-based.

The source made the active and inactive calls. The rule behind the calls is not given here. Non-standard residues stand in square brackets, D forms with d. Residues, ends and D or L forms follow the SMILES beside them. hArg = N=C(N)NCCCC[C@H](N)C(=O)O; Agb = N=C(N)NCC[C@H](N)C(=O)O; Agp = N=C(N)NC[C@H](N)C(=O)O; Orn = NCCC[C@H](N)C(=O)O; Dab = NCC[C@H](N)C(=O)O

Take `CC[C@H](C)[C@H](NC(=O)[C@H](CCCNC(=N)N)NC(=O)[C@@H](NC(=O)[C@H](C)NC(=O)[C@@H](NC(=O)[C@@H](NC(=O)[C@H](CC(C)C)NC(=O)[C@H](CCN)NC(=O)[C@@H](N)C(C)C)[C@@H](C)CC)C(C)C)C(C)C)C(=O)N[C@@H](Cc1c[nH]c2ccccc12)C(=O)N[C@@H](CCCNC(=N)N)C(=O)N[C@@H](CCCNC(=N)N)C(N)=O` (H-V[Dab]LIVAVRIWRR-NH2): the “residual biofilm growth (% of control)” value in test [1] came out at 21.5%. Further, the result in test [2] was Active. Further, in test [3], the inhibition entry is “Dose-dependent effect”.
The matching figures for `CC[C@H](C)[C@H](NC(=O)[C@H](CCCNC(=N)N)NC(=O)[C@@H](NC(=O)[C@H](C)NC(=O)[C@@H](NC(=O)[C@@H](NC(=O)[C@H](CCCN)NC(=O)[C@H](CCCNC(=N)N)NC(=O)[C@@H](N)C(C)C)[C@@H](C)CC)C(C)C)C(C)C)C(=O)N[C@@H](Cc1c[nH]c2ccccc12)C(=O)N[C@@H](CCCNC(=N)N)C(=O)N[C@@H](CCCNC(=N)N)C(N)=O` (H-VR[Orn]IVAVRIWRR-NH2): 99.3%, “Active” and “Dose-dependent effect”.
The matching figures for `CC[C@H](C)[C@H](NC(=O)[C@H](CCCNC(=N)N)NC(=O)[C@@H](NC(=O)[C@H](C)NC(=O)[C@@H](NC(=O)[C@H](CCCCNC(=N)N)NC(=O)[C@H](CC(C)C)NC(=O)[C@H](CCCNC(=N)N)NC(=O)[C@@H](N)C(C)C)C(C)C)C(C)C)C(=O)N[C@@H](Cc1c[nH]c2ccccc12)C(=O)N[C@@H](CCCNC(=N)N)C(=O)N[C@@H](CCCNC(=N)N)C(N)=O` (H-VRL[hArg]VAVRIWRR-NH2): 107.6%, “Active” and “Dose-dependent effect”.
The matching figures for `CC[C@H](C)[C@H](NC(=O)[C@H](CCCNC(=N)N)NC(=O)[C@@H](NC(=O)[C@H](C)NC(=O)[C@@H](NC(=O)[C@@H](NC(=O)[C@H](CC(C)C)NC(=O)[C@H](CCCNC(=N)N)NC(=O)[C@@H](N)CCCN)[C@@H](C)CC)C(C)C)C(C)C)C(=O)N[C@@H](Cc1c[nH]c2ccccc12)C(=O)N[C@@H](CCCNC(=N)N)C(=O)N[C@@H](CCCNC(=N)N)C(N)=O` (H-[Orn]RLIVAVRIWRR-NH2): 12.2%, “Active” and “Dose-dependent effect”.
As to `CC[C@H](C)[C@H](NC(=O)[C@H](CCCNC(=N)N)NC(=O)[C@@H](NC(=O)[C@H](C)NC(=O)[C@@H](NC(=O)[C@@H](NC(=O)[C@H](CC(C)C)NC(=O)[C@H](CCCNC(=N)N)NC(=O)[C@@H](N)C(C)C)[C@@H](C)CC)C(C)C)C(C)C)C(=O)N[C@@H](CCCCNC(=N)N)C(=O)N[C@@H](CCCNC(=N)N)C(=O)N[C@@H](CCCNC(=N)N)C(N)=O` (H-VRLIVAVRI[hArg]RR-NH2), in test [1], the “residual biofilm growth (% of control)” value is given as 37.2%. Besides, the result in test [2] was Active. The inhibition result in test [3] was “Dose-dependent effect”.
The matching figures for `CC[C@H](C)[C@H](NC(=O)[C@H](CC(C)C)NC(=O)[C@H](CCCNC(=N)N)NC(=O)[C@@H](N)C(C)C)C(=O)N[C@H](C(=O)N[C@@H](C)C(=O)N[C@H](C(=O)N[C@@H](CCCNC(=N)N)C(=O)N[C@@H](CNC(=N)N)C(=O)N[C@@H](Cc1c[nH]c2ccccc12)C(=O)N[C@@H](CCCNC(=N)N)C(=O)N[C@@H](CCCNC(=N)N)C(N)=O)C(C)C)C(C)C` (H-VRLIVAVR[Agp]WRR-NH2): 104.1%, “Active” and “Dose-dependent effect”.
The matching figures for `CC[C@H](C)[C@H](NC(=O)[C@H](CC(C)C)NC(=O)[C@H](CCCNC(=N)N)NC(=O)[C@@H](N)C(C)C)C(=O)N[C@@H](CCN)C(=O)N[C@@H](C)C(=O)N[C@H](C(=O)N[C@@H](CCCNC(=N)N)C(=O)N[C@H](C(=O)N[C@@H](Cc1c[nH]c2ccccc12)C(=O)N[C@@H](CCCNC(=N)N)C(=O)N[C@@H](CCCNC(=N)N)C(N)=O)[C@@H](C)CC)C(C)C` (H-VRLI[Dab]AVRIWRR-NH2): 102.7%, “Active” and “Dose-dependent effect”.
In the case of `CC[C@H](C)[C@H](NC(=O)[C@H](CCCNC(=N)N)NC(=O)[C@@H](NC(=O)[C@H](C)NC(=O)[C@@H](NC(=O)[C@@H](NC(=O)[C@H](CC(C)C)NC(=O)[C@H](CCCNC(=N)N)NC(=O)[C@@H](N)C(C)C)[C@@H](C)CC)C(C)C)C(C)C)C(=O)N[C@@H](Cc1c[nH]c2ccccc12)C(=O)N[C@@H](CCCNC(=N)N)C(=O)N[C@@H](CCCCNC(=N)N)C(N)=O` (H-VRLIVAVRIWR[hArg]-NH2), the “residual biofilm growth (% of control)” value in test [1] is on record as 8.5%. For the same compound, the result in test [2] was Active. Also, the inhibition result in test [3] is “Dose-dependent effect”.
The matching figures for `CC[C@H](C)[C@H](NC(=O)[C@H](CCCNC(=N)N)NC(=O)[C@@H](NC(=O)[C@H](C)NC(=O)[C@@H](NC(=O)[C@@H](NC(=O)[C@H](CC(C)C)NC(=O)[C@H](CCCNC(=N)N)NC(=O)[C@@H](N)CCNC(=N)N)[C@@H](C)CC)C(C)C)C(C)C)C(=O)N[C@@H](Cc1c[nH]c2ccccc12)C(=O)N[C@@H](CCCNC(=N)N)C(=O)N[C@@H](CCCNC(=N)N)C(N)=O` (H-[Agb]RLIVAVRIWRR-NH2): 13.6%, “Active” and “Dose-dependent effect”.
As for H-VRLIKAVRIWRR-NH2, in test [1], the “residual biofilm growth (% of control)” value was determined as 102%. Further, the outcome in test [2] was Active. Besides, in test [3], the inhibition result is “Dose-dependent effect”.
For `CC[C@H](C)[C@H](NC(=O)[C@H](CCCNC(=N)N)NC(=O)[C@@H](NC(=O)[C@H](C)NC(=O)[C@@H](NC(=O)[C@@H](NC(=O)[C@H](CNC(=N)N)NC(=O)[C@H](CCCNC(=N)N)NC(=O)[C@@H](N)C(C)C)[C@@H](C)CC)C(C)C)C(C)C)C(=O)N[C@@H](Cc1c[nH]c2ccccc12)C(=O)N[C@@H](CCCNC(=N)N)C(=O)N[C@@H](CCCNC(=N)N)C(N)=O` (H-VR[Agp]IVAVRIWRR-NH2), the “residual biofilm growth (% of control)” value in test [1] came out at 102.2%. For the same compound, the result in test [2] was Active. Moreover, the inhibition entry in test [3] was “Dose-dependent effect”.
In the case of `CC[C@H](C)[C@H](NC(=O)[C@H](CCCNC(=N)N)NC(=O)[C@@H](NC(=O)[C@H](C)NC(=O)[C@@H](NC(=O)[C@H](CCCN)NC(=O)[C@H](CC(C)C)NC(=O)[C@H](CCCNC(=N)N)NC(=O)[C@@H](N)C(C)C)C(C)C)C(C)C)C(=O)N[C@@H](Cc1c[nH]c2ccccc12)C(=O)N[C@@H](CCCNC(=N)N)C(=O)N[C@@H](CCCNC(=N)N)C(N)=O` (H-VRL[Orn]VAVRIWRR-NH2), the “residual biofilm growth (% of control)” value in test [1] is reported as 36.9%. The result in test [2] was Active. For the same compound, the inhibition result in test [3] is “Dose-dependent effect”.
The matching figures for `CC[C@H](C)[C@H](NC(=O)[C@H](CCCNC(=N)N)NC(=O)[C@@H](NC(=O)[C@H](C)NC(=O)[C@@H](NC(=O)[C@@H](NC(=O)[C@H](CC(C)C)NC(=O)[C@H](CCCCNC(=N)N)NC(=O)[C@@H](N)C(C)C)[C@@H](C)CC)C(C)C)C(C)C)C(=O)N[C@@H](Cc1c[nH]c2ccccc12)C(=O)N[C@@H](CCCNC(=N)N)C(=O)N[C@@H](CCCNC(=N)N)C(N)=O` (H-V[hArg]LIVAVRIWRR-NH2): 38.4%, “Active” and “Dose-dependent effect”.
Turning to `CC[C@H](C)[C@H](NC(=O)[C@H](CCCNC(=N)N)NC(=O)[C@@H](NC(=O)[C@H](C)NC(=O)[C@@H](NC(=O)[C@H](CCNC(=N)N)NC(=O)[C@H](CC(C)C)NC(=O)[C@H](CCCNC(=N)N)NC(=O)[C@@H](N)C(C)C)C(C)C)C(C)C)C(=O)N[C@@H](Cc1c[nH]c2ccccc12)C(=O)N[C@@H](CCCNC(=N)N)C(=O)N[C@@H](CCCNC(=N)N)C(N)=O` (H-VRL[Agb]VAVRIWRR-NH2), in test [1], the “residual biofilm growth (% of control)” value stood at 98.5%. Besides, the result in test [2] was Active. Besides, in test [3], the inhibition result is “Dose-dependent effect”.
Turning to `CC[C@H](C)[C@H](NC(=O)[C@H](CCCNC(=N)N)NC(=O)[C@@H](NC(=O)[C@H](C)NC(=O)[C@@H](NC(=O)[C@@H](NC(=O)[C@H](CC(C)C)NC(=O)[C@H](CCCNC(=N)N)NC(=O)[C@@H](N)C(C)C)[C@@H](C)CC)C(C)C)C(C)C)C(=O)N[C@@H](Cc1c[nH]c2ccccc12)C(=O)N[C@@H](CCCCNC(=N)N)C(=O)N[C@@H](CCCNC(=N)N)C(N)=O` (H-VRLIVAVRIW[hArg]R-NH2), the “residual biofilm growth (% of control)” value in test [1] is 10.8%. Further, the outcome in test [2] was Active. For the same compound, in test [3], the inhibition result is “Dose-dependent effect”.
The matching figures for `CC[C@H](C)[C@H](NC(=O)[C@H](CC(C)C)NC(=O)[C@H](CCCNC(=N)N)NC(=O)[C@@H](N)C(C)C)C(=O)N[C@@H](CCCN)C(=O)N[C@@H](C)C(=O)N[C@H](C(=O)N[C@@H](CCCNC(=N)N)C(=O)N[C@H](C(=O)N[C@@H](Cc1c[nH]c2ccccc12)C(=O)N[C@@H](CCCNC(=N)N)C(=O)N[C@@H](CCCNC(=N)N)C(N)=O)[C@@H](C)CC)C(C)C` (H-VRLI[Orn]AVRIWRR-NH2): 103%, “Active” and “Dose-dependent effect”.
The matching figures for H-VRRIVAVRIWRR-NH2: 83.7%, “Active” and “Dose-dependent effect”.
The matching figures for `CC[C@H](C)[C@H](NC(=O)[C@H](CC(C)C)NC(=O)[C@H](CCCNC(=N)N)NC(=O)[C@@H](N)C(C)C)C(=O)N[C@H](C(=O)N[C@@H](C)C(=O)N[C@H](C(=O)N[C@@H](CCCNC(=N)N)C(=O)N[C@@H](CCNC(=N)N)C(=O)N[C@@H](Cc1c[nH]c2ccccc12)C(=O)N[C@@H](CCCNC(=N)N)C(=O)N[C@@H](CCCNC(=N)N)C(N)=O)C(C)C)C(C)C` (H-VRLIVAVR[Agb]WRR-NH2): 103.6%, “Active” and “Dose-dependent effect”.

For the origin of these results see ChEMBL document CHEMBL4376833, “Influence of Non-natural Cationic Amino Acids on the Biological Activity Profile of Innate Defense Regulator Peptides” (J Med Chem, 2019).
